What was measured:
[1] = target: Wild-type IDH2 (Homo sapiens (Human), UniProt P48735); assay: Biochemical assay for wild-type IDH2 enzyme (isocitrate to αKG, LC-MS); settings: pH 7.5
Protocol: (§1) IDH1 and IDH2 enzymes catalyze the conversion of isocitrate to αKG. […] Following derivatization at room temperature for one hour, samples are extracted with 600 μL of EtOAc.

[2] = target: IDH2-R172K (Homo sapiens (Human), UniProt P48735, R172K); assay: Biochemical assay for IDH2 R172K mutant enzyme (conversion of αKG to 2HG, RapidFire MS); settings: IDH2/R172K IC50, 1.2 nM enzyme, 90 minutes, pH 7.0
[3] = target: Wild-type IDH1 (Homo sapiens (Human), UniProt O75874); assay: Biochemical assay for wild-type IDH1 enzyme (isocitrate to αKG, LC-MS); settings: pH 7.5
Protocol: as §1

[4] = target: IDH2-R140Q (Homo sapiens (Human), UniProt P48735, R140Q); assay: Biochemical assay for IDH2 R140Q mutant enzyme (conversion of αKG to 2HG, RapidFire MS); settings: IDH2/R140Q IC50, 1.2 nM enzyme, 90 minutes, pH 7.0
Sequence of IDH2-R140Q (P48735 40-452 R140Q): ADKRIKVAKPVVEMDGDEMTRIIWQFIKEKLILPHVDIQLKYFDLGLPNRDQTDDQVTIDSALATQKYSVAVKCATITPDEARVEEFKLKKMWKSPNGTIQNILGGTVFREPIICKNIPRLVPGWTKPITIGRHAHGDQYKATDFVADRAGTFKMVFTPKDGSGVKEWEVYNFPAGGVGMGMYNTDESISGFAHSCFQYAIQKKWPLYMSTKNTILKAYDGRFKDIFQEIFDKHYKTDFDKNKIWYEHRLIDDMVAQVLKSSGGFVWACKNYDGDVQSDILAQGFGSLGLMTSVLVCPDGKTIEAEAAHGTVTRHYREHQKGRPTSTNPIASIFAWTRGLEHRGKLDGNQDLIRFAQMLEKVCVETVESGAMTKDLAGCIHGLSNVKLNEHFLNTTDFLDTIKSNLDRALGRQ

Sequence of Wild-type IDH2 (P48735 40-452): as the sequence (P48735 40-452 R140Q) above, with Q101R counted along it
Sequence of Wild-type IDH1 (O75874 whole entry): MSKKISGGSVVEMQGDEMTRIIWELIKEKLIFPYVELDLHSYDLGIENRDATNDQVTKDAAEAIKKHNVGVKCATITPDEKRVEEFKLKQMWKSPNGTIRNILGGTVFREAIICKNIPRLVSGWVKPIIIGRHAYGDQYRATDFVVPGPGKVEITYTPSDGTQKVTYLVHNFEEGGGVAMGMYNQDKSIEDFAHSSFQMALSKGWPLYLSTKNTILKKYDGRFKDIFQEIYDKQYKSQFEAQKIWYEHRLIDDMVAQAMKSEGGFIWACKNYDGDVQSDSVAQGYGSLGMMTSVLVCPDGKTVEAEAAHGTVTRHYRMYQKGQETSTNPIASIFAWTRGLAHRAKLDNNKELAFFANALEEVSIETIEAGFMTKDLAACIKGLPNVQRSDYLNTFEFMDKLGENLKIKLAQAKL
Sequence of IDH2-R172K (P48735 40-452 R172K): as the sequence (P48735 40-452 R140Q) above, with Q101R, R133K counted along it

SMILES | IC50 [1] [nM] | IC50 [2] [nM] | IC50 [3] [nM] | IC50 [4] [nM]
C=CC(=O)N1CCN(C(CC)c2ccc([C@H](C)Nc3ncc4c(n3)N(CC)C(=O)OC4)cc2)CC1 (single isomer, unassigned) [Example 12] | 3220 | 26.3 | 277 | 134
C=CC(=O)N1CCN(C(CC(C)C)c2ccc([C@H](C)Nc3ncc4c(n3)N(CC)C(=O)OC4)cc2)CC1 (single isomer, unassigned) [Example 7] | 1530 | 22.4 | 233 | 74.3
C=CC(=O)N1CCN(C(CCOC)c2ccc([C@H](C)Nc3ncc4c(n3)N(CC)C(=O)OC4)cc2)CC1 (single isomer, unassigned) [Example 13] | 7030 | 39 | 456 | 239
C=CC(=O)N1CCN(C(CC(C)C)c2ccc([C@H](C)Nc3ncc4c(n3)N(CC)C(=O)OC4)cc2)CC1 (stereo partly drawn) [Example 6, 1-Ethyl-7-[[(1S)-1-[4-[3-methyl-1-(4-prop-2-enoylpiperazin-1-yl)butyl]phenyl]ethyl]amino]-4H-pyrimido[4,5-d][1,3]oxazin-2-one] | 493 |  | 54.9 | 
C=CC(=O)N1CCN(C(CC)c2ccc([C@H](C)Nc3ncc4c(n3)N(CC)C(=O)OC4)cc2)CC1 (single isomer, unassigned) [Example 11] | 2080 | 20 | 345 | 54.3
C=CC(=O)N1CCN(C(CC(C)C)c2ccc([C@H](C)Nc3ncc4c(n3)N(CC)C(=O)OC4)cc2)CC1 (single isomer, unassigned) [Example 8] | 1620 | 17 | 237 | 46
C=CC(=O)N1CCN(C(CC2CC2)c2ccc([C@H](C)Nc3ncc4c(n3)N(C)C(=O)OC4)cc2)CC1 (single isomer, unassigned) [Example 3] | 3370 | 15.6 | 425 | 64.8
C=CC(=O)N1CCN([C@@H](CC2CC2)c2ccc([C@H](C)Nc3ncc4c(n3)N(CC)C(=O)OC4)cc2)CC1 [Example 2, 7-[[(1S)-1-[4-[(1S)-2-cyclopropyl-1-(4-prop-2-enoylpiperazin-1-yl)ethyl]phenyl]ethyl]amino]-1-ethyl-4H-pyrimido[4,5-d][1,3]oxazin-2-one] | 884 ± 748 | 11.5 | 105 ± 113 | 36.9
C=CC(=O)N1CCN(C(CC2CC2)c2ccc([C@H](C)Nc3ncc4c(n3)N(C)C(=O)OC4)cc2)CC1 (single isomer, unassigned) [Example 4] | 3700 | 28 | 302 | 81.1
C=CC(=O)N1CCN(C(CCOC)c2ccc([C@H](C)Nc3ncc4c(n3)N(CC)C(=O)OC4)cc2)CC1 (single isomer, unassigned) [Example 14] | 7400 | 162 | 392 | 746
C=CC(=O)N1CCN([C@H](CC2CC2)c2ccc([C@H](C)Nc3ncc4c(n3)N(CC)C(=O)OC4)cc2)CC1 [Example 1, 7-[[(1S)-1-[4-[(1R)-2-Cyclopropyl-1-(4-prop-2-enoylpiperazin-1-yl)ethyl]phenyl]ethyl]amino]-1-ethyl-4H-pyrimido[4,5-d][1,3]oxazin-2-one] | 801 ± 745 | 32.8 | 85.4 ± 107 | 113

From patent US11001596B2, “7-phenylethylamino-4H-pyrimido[4,5-d][1,3]oxazin-2-one compounds as mutant IDH1 and IDH2 inhibitors” (Eli Lilly and Company, priority 2016, dated 2021)
